Reference: patent US20120045433A1, “COMBINATION THERAPY” (priority 2010, published 2012)
Where a name gives a salt, the structure may show the parent alone.

Legend:
[1] = test system: human HT-29 cell xenografts; test: Antitumor activity (tumor growth inhibition, regression) in mice with human HT-29 colorectal cancer xenografts; type: in vivo; conditions: for % Tumor Growth Inhibition: Compound I 25 mg/kg bid, cetuximab 40 mg/kg 2x/wk, irinotecan HCl 40 mg/kg q4d x5, alone or combined
Description: (§1) Mice were implanted with human HT-29 cell xenografts. The mice, cell line used, and implantation are described below.
Tumor measurements were taken once or twice per week. All animals were individually followed throughout the experiment.

[2] = test system: human HT-29 cell xenografts; test: Assessment of survival (increased life span) in mice with human HT-29 xenografts; type: in vivo; conditions: for 50% Treatment Days: median survival, Kaplan Meier, vehicle 30 days, same doses
Description: as §1
For survival assessment, the percent of increased life space (ILS) was calculated as: 100×[(median survival day of treated group−median survival day of control group)/median survival day of control group]. Median survival was determined utilizing Kaplan Meier survival analysis. […] Differences between groups were considered significant when the probability value (p) was ≦0.05.

[3] = number of mice out of 10 per group, same doses

Structure (SMILES)	Mean Tumor Volume (mm^3) End Study ([1]; Compound I 25 mg/kg bid po, cetuximab 40 mg/kg 2x/wk ip, irinotecan HCl 40 mg/kg q4d x5 ip, alone or combined, end of study day 32) [mm^3]	% Tumor Growth Inhibition [1] [%]	Mean Tumor Volume (mm^3) Start Study ([1]; baseline at start of treatment (day 11 post implant)) [mm^3]	% Inhibition end of study Day: 32 ([1]; same doses) [%]	% T/C end of study Day: 32 ([1]; same doses) [%]	% ILS ([2]; increased life span versus vehicle, Compound I 25 mg/kg bid, cetuximab 40 mg/kg 2x/wk, irinotecan HCl 40 mg/kg q4d x5, alone or combined) [%]	50% Treatment Days [2] [days]	Complete Regression [1, 3]	Partial Regression [1, 3]
CCCS(=O)(=O)Nc1ccc(F)c(C(=O)c2c[nH]c3ncc(-c4ccc(Cl)cc4)cc23)c1F [Compound I, propane-1-sulfonic acid {3-[5-(4-chlorophenyl)-1H-pyrrolo[2,3-b]pyridine-3-carbonyl]-2,4-difluoro-phenyl}-amide]	563.72	76	136.24	76	24	80	54		
CCc1c2c(nc3ccc(OC(=O)N4CCC(N5CCCCC5)CC4)cc13)-c1cc3c(c(=O)n1C2)COC(=O)[C@]3(O)CC [Irinotecan HCl, irinotecan hydrochloride, reference compound]		59		59	41		35	0	0
